Reference: US11666630B2, “Polypeptides for managing viral infections” (priority 2016, dated 2023)
Entries after “also recorded” stand apart in the source; their conditions may differ. Where two headings read alike, the source gives them in different places. Peptide text beside a SMILES is read from it.

What was measured:
[1] = tested on: H2 avian influenza hemagglutinin; assay type: binding; settings: biotinylated Yodha peptide, streptavidin PE detection
[2] = tested on: influenza viruses; assay type: cell-based, influenza virus
[3] = tested on: H5 avian influenza hemagglutinin; assay type: binding; settings: biotinylated Yodha peptide, streptavidin PE detection
[4] = tested on: H1N2; assay type: cell-based, influenza virus
[5] = tested on: H3N1; assay type: cell-based, influenza virus
[6] = tested on: DENV 4; assay: FFA of DENV 4 incubated with peptide
[7] = tested on: H1N1; assay type: cell-based, human influenza virus; settings: incubated with virus at 37° C. for 1 hour, MDCK cells
[8] = tested on: DENV 2; assay: FFA of DENV 2 incubated with peptide
[9] = tested on: DENV 1; assay: FFA of DENV 1 incubated with peptide
[10] = tested on: H9 avian influenza hemagglutinin; assay type: binding; settings: biotinylated Yodha peptide, streptavidin PE detection
[11] = tested on: ZIKV (PRVABC59 strain); settings: for reduction of ZIKV: dose escalation, FFA; for activity of truncated and mutant Yodha peptides against ZIKV compared with parent peptide: FIG. 7E
[12] = tested on: H3N2; assay type: cell-based, human influenza virus; settings: incubated with virus at 37° C. for 1 hour, MDCK cells
[13] = tested on: DENV 3; assay: FFA of DENV 3 incubated with peptide
[14] = tested on: PRVABC ZIKV; assay: ZIKV infection of anti-Ifnar1 mAb treated mice, viremia and viral burden by real time PCR
[15] = tested on: ZIKV; assay: Peptide treatment of Vero cells already infected with ZIKV, FFU assay of culture supernatants; assay type: cell-based, Zika virus; settings: for ZIKV in culture supernatant: 3 hours post-infection, peptide 40 μM
[16] = tested on: ZIKV; assay: Transmission electron microscopy of peptide-treated ZIKV; settings: 200 μM peptide, 10 min treatment
[17] = tested on: H7 avian influenza hemagglutinin; assay type: binding; settings: biotinylated Yodha peptide, streptavidin PE detection
[18] = tested on: Recombinant hemagglutinins from three H3 viruses; assay type: binding, influenza virus; settings: biotinylated Yodha peptide, streptavidin PE detection
[19] = tested on: ZIKV (PRVABC59); assay: Immunofluorescence of ZIKV envelope in Vero cells; assay type: cell-based, Zika virus; settings: ZIKV exposed to peptide before infection
[20] = tested on: Clade A HIV; assay: HIV inhibition, graded doses of peptide; assay type: cell-based; settings: 40 uM peptide
Description: (§1) FIG. 10A. […] Clades A, B and C HIV viruses were exposed to graded doses (5 um-160 uM) of either Yodha peptide or control OVA peptide.

[21] = tested on: Clade C HIV; assay: HIV inhibition, graded doses of peptide; assay type: cell-based; settings: 40 uM peptide
Description: as §1

[22] = tested on: Clade B HIV; assay: HIV inhibition, graded doses of peptide; assay type: cell-based; settings: 40 uM peptide
Description: as §1

[23] = tested on: ZIKV; assay: ZIKV entry into Vero cells, viral RNA by qRT-PCR; settings: ZIKV pre-incubated with 200 μM peptide

CC[C@H](C)[C@H](NC(=O)[C@@H](NC(=O)CNC(=O)[C@H](CC(C)C)NC(=O)[C@H](Cc1ccccc1)NC(=O)[C@H](Cc1ccccc1)NC(=O)[C@H](CC(C)C)NC(=O)[C@H](CC(C)C)NC(=O)[C@H](CC(C)C)NC(=O)[C@H](CCSC)NC(=O)[C@@H](N)CO)[C@@H](C)O)C(=O)N[C@@H](CO)C(=O)N[C@@H](CC(C)C)C(=O)N[C@@H](CO)C(=O)N[C@@H](CC(C)C)C(=O)N[C@@H](CS)C(=O)N[C@@H](CCC(N)=O)C(=O)N[C@@H](CC(=O)O)C(=O)N[C@@H](CC(=O)O)C(=O)N[C@@H](CCC(N)=O)C(=O)N[C@@H](CCC(=O)O)C(=O)N[C@@H](CCCNC(=N)N)C(=O)N[C@@H](CS)C(=O)O [Yodha peptide] (H-SMLLLFFLGTISLSLCQDDQERC-OH; N-terminus and C-terminus assumed)
binding to H2 hemagglutinin [1]: binds | activity against subtypes of influenza viruses [2]: effective against all subtypes of influenza viruses; also recorded: effective against may subtypes of influenza viruses | binding to H5 hemagglutinin [3]: binds | virucidal activity against H1N2 [4]: virucidal | virucidal activity against H3N1 [5]: virucidal | higher dose required to be effective against DENV 4 [6]: 160 µM | virucidal activity against DENV 4 [6]: virucidal; also recorded: neutralizes | neutralization of DENV 4 ([6]; 50 μM peptide): easily neutralized; also recorded: effective | virucidal activity against H1N1 [7]: virucidal; also recorded: neutralizes | virucidal activity against DENV 2 [8]: virucidal; also recorded: neutralizes | neutralization of DENV 2 ([8]; 50 μM peptide): easily neutralized; also recorded: effective | virucidal activity against DENV 1 [9]: virucidal; also recorded: neutralizes | neutralization of DENV 1 ([9]; 50 μM peptide): easily neutralized; also recorded: effective | binding to H9 hemagglutinin [10]: binds | time of exposure to virus within which the virus is neutralized [11]: ≤ 5 min | reduction of ZIKV ([11]; 10 μM peptide): 35% | reduction of ZIKV ([11]; 20 μM peptide): 50% | reduction of ZIKV ([11]; 40 μM peptide): 65% | reduction of ZIKV ([11]; 80 μM peptide): 80% | reduction of ZIKV ([11]; 160 μM peptide): 90% | IC50 ([11]; PRVABC59 strain, 2 h): 20 µM | virucidal activity against H3N2 [12]: virucidal; also recorded: neutralizes | virucidal activity against DENV 3 [13]: virucidal; also recorded: neutralizes | dose needed for neutralization of DENV 3 ([13]; 50 μM versus 160 μM peptide): required higher dose | ZIKV viremia in serum ([14]; day 3 post-infection): reduces | ZIKV viral burden in tissues ([14]; day 6, eye and spleen): reduces | reduction in ZIKV production ([15]; 48 and 72 hours post-infection, peptide 40 μM added after infection): 60-70% | ZIKV in culture supernatant [15]: not detected | ZIKV titers in the supernatants ([15]; peptide 40 μM added after infection): significantly reduced | morphology of ZIKV particles (electron microscopy) [16]: disruption of viral particles | binding to H7 hemagglutinin [17]: binds | binding to HA from H3 viruses [18]: binds | expression of ZIKV envelope in Vero cells (immunofluorescence) [19]: decreased expression of ZIKV envelope | inhibition of clade A HIV [20]: efficiently inhibited | inhibition of clade C HIV [21]: efficiently inhibited | inhibition of clade B HIV [22]: efficiently inhibited

SMLLLFFAGTISLSLCQDDQERC [peptide 8]
virucidal activity of alanine-scanning mutants compared with Yodha peptide ([11]; Yodha set as zero, FIG. 6B): statistically significant (p=0.02) antiviral activity than the parental peptide

OVA257-264 peptide (ESIINFEK; UniProt P01012 257-264, looked up, fragment) [OVA peptide, control peptide (Invivogen), reference compound]
amount of ZIKV RNA detected versus virus-only samples [23]: Comparable amounts | ZIKV in culture supernatant [15]: not detected | morphology of ZIKV particles (electron microscopy) [16]: intact virions | expression of ZIKV envelope in Vero cells (immunofluorescence) [19]: no such effect

PMLLLFFLGTISLSLCQ [Short 12 peptide]
activity of truncated and mutant Yodha peptides against ZIKV compared with parent peptide [11]: significantly improved activity | efficiency against DENV3 infection compared with full length Yodha peptide ([13]; dose escalation): more efficient

PMLLLFFLGTISLSLCQDDQERC [S 1P Yodha]
activity of truncated and mutant Yodha peptides against ZIKV compared with parent peptide [11]: significantly more effective

PMLLLFFLGTISLSLCQEEERGA [Variant 12]
effect against ZIKV relative to Yodha peptide ([11]; FIG. 7C): 1.6 fold

SMLLLFFLGTISLSLCQ [short Yodha peptide]
activity of truncated and mutant Yodha peptides against ZIKV compared with parent peptide [11]: significantly improved activity
